Measured values from patent EP4035684A1, “AFFINITY ILLUDOFULVENE CONJUGATES” (AF Chemical LLC, priority 2019, dated 2022).
*1 amine or outer side, *2 acyl side, *3 side chain or, on linkers, in order; H or OH if unused. Where a SMILES comes first, the peptide text is derived from it. The star is where a group is joined. X2 = CC1=C(CCCN*)C2=C(C)C3(CC3)[C@@](C)(O)C(=O)C2=C1; Morpholide = C1CN(*)CCO1; CO = O=C([*:1])[*:2]

Assays:
NCI 60 cell line panel [1] = conditions: cited from earlier work; for Mean TGI cytostatic / GI50: mean over NCI DTP 60 cell lines; for GI50: read-out: Mean GI50 inhibition; for CC50: human, nci 60 cell lines
HT29 (ER Negative) = experiment: Cytotoxicity, 2 hour exposure, cells not expressing the estrogen receptor; assay type: cell-based; conditions: Homo sapiens, HT-29, N=3, mean ± SD
Excerpt: (§1) MCF7 over express estrogen alpha-receptors.
(§2) MCF7 cells over express estrogen alpha-receptors.
(§3) The foregoing description of embodiments of the methods, systems, and components of the present invention has been provided for the purposes of illustration and description. It is not intended to be exhaustive or to limit the invention to the precise forms disclosed. Many modifications and variations will be apparent to one of ordinary skill in the relevant arts. For example, steps performed in the embodiments of the invention disclosed can be performed in alternate orders, certain steps can be omitted, and additional steps can be added. The embodiments were chosen and described in order to best explain the principles of the invention and its practical application, thereby enabling others skilled in the art to understand the invention for various embodiments and with various modifications that are suited to the particular used contemplated. Other embodiments are possible and are covered by the invention. Such embodiments will be apparent to persons skilled in the relevant art(s) based on the teachings contained herein. The breadth and scope of the present invention should not be limited by any of the above-described exemplary embodiments, but should be defined only in accordance with the following claims and their equivalents.

MCF7 (ER positive) = experiment: Cytotoxicity, 2 hour exposure, cells expressing the estrogen receptor; assay type: cell-based; conditions: Homo sapiens, N=3, mean ± SD
Excerpt: as §1, §2, §3

[2] = test system: Prostate PC3 (negative PSA); experiment: Activity of PSA cleavable analogs against PSA negative cell line, 48 hour exposure; assay type: cell-based; conditions: N=3, mean ± SD
[3] = test system: Prostate DuPro (trace PSA); experiment: Activity of PSA cleavable analogs against trace PSA cell line, 48 hour exposure; assay type: cell-based; conditions: Homo sapiens, N=3, mean ± SD
[4] = test system: Prostate LnCAP (positive PSA); experiment: Activity of PSA cleavable analogs against PSA positive cell line, 48 hour exposure; assay type: cell-based; conditions: Homo sapiens, N=3, mean ± SD
NCI 60 cell line panel [5] = experiment: NCI DTP 60 cell line screen assay
Excerpt: An ADC is engulfed by a tumor cell, transported to the endosomes (pH < 6.0) and then into the lysozomes (pH < 4). […] 4) Cancer cells can become resistant to various toxins and drugs through the development of what is termed multi-drug resistance. This process is known to occur through several different mechanisms.

MV522 cell line [6] = experiment: cells; assay type: cell-based; conditions: read-out: Mean IC50 value (nM) ± SD, N=3 unless otherwise indicated, MV522 Target Cell Line, 2 hr exposure
8392B cell line [7] = experiment: Two hour toxicity: inhibition of DNA synthesis activity, nontarget cell line; assay type: cell-based; conditions: read-out: Mean IC50 value (nM) ± SD, N=3 unless otherwise indicated; 8392B Nontarget Cell Line; 2 hr exposure; 8392B nontarget cell line, 2 hr exposure; mean ± SD, N=3 unless otherwise indicated
MV522 cell line [8] = experiment: 48 hour exposure, growth or viability by Trypan Blue Exclusion assay, target cell line; assay type: cell-based; conditions: read-out: Mean IC50 value (nM) ± SD, N=3 unless otherwise indicated
8392B cell line [9] = experiment: cells; assay type: cell-based
[10] = test system: Prostate LnCAP (positive PSA); experiment: Activity of PSA cleavable analogs against PSA positive cell line, 48 hour exposure; assay type: cell-based; conditions: N=3, mean ± SD
[11] = test system: Prostate PC3 (negative PSA); experiment: Activity of PSA cleavable analogs against PSA negative cell line, 48 hour exposure; assay type: cell-based; conditions: N=3, mean ± SD; remark: listed apart in the source
[12] = test system: Prostate DuPro (trace PSA); experiment: Activity of PSA cleavable analogs against trace PSA cell line, 48 hour exposure; assay type: cell-based; conditions: N=3, mean ± SD
[13] = MV522 target cell line, mean ± SD, N=3 unless otherwise indicated
[14] = read-out: Mean IC50 value (nM) ± SD, N=3 unless otherwise indicated, 8392B Nontarget Cell Line, 48 hr exposure, 8392B nontarget cell line, mean ± SD, N=3 unless otherwise indicated

Compound	Mean TGI cytostatic (NCI 60 cell line panel [1])	GI50 (NCI 60 cell line panel [1])	IC50 (8392B cell line [7])	IC50 (MV522 cell line [8])	IC50 (MV522 cell line [6]; [13])	IC50 (8392B cell line [9]; [14])	also measured
CO[C@@H]1[C@H](O)CC[C@]2(CO2)[C@H]1[C@@]1(C)O[C@@H]1CC=C(C)C [Fumagillol]	9,850 nM	6130 nM					
CC1=C2C(=CC(C)(C)[C@@H]2O)C(=O)[C@](C)(O)C12CC2 [Illudin M]	20 nM	3 nM					IC50 (HT29 (ER Negative)): 520 ± 100 nM; IC50 (MCF7 (ER positive)): 480 ± 130 nM; CC50 (NCI 60 cell line panel [1]): 291 nM
CC1=C2C(=C[C@@](C)(CO)[C@@H]2O)C(=O)[C@](C)(O)C12CC2 [Illudin S]	64 nM	10 nM					IC50 [2]: 16 ± 5 nM; IC50 [3]: 11 ± 3 nM; IC50 [4]: 15 ± 3 nM
COc1cc2cc(c1Cl)N(C)C(=O)C[C@H](OC(=O)[C@H](C)N(C)C(C)=O)[C@]1(C)O[C@H]1[C@H](C)[C@@H]1C[C@@](O)(NC(=O)O1)[C@H](OC)/C=C/C=C(\C)C2 [Maytansine]	318 nM						
C=C1C[C@H]2C=Nc3cc(OCCCOc4cc5c(cc4OC)C(=O)N4CC(=C)C[C@H]4C=N5)c(OC)cc3C(=O)N2C1 [Pyrrolobenzodiazepines]	302 nM	7 nM					
CC[C@H](C)[C@H](NC(=O)[C@H]1CCCCN1C)C(=O)N(COC(=O)CC(C)C)[C@H](C[C@@H](OC(C)=O)c1nc(C(=O)N[C@@H](Cc2ccc(O)cc2)C[C@H](C)C(=O)O)cs1)C(C)C [Tubulysin A]	1,318 nM	12 nM					CC50 (NCI 60 cell line panel [1]): > 10000 nM
CC(=O)OCC1(C)C=C2C(=O)[C@](C)(O)C3(CC3)C(C)=C2C1O (stereo partly drawn) [compound 159]			13700 nM	120 ± 10 nM			MDR Activity (NCI 60 cell line panel [5]; […]): Yes; Cytotoxicity (NCI 60 cell line panel [5]; ability to actually kill tumor cells versus only inhibiting growth): Yes; IC50 (MV522 cell line [6]; MV522, 2 h): 2700 ± 400 nM; IC50 (8392B cell line [9]; 48 h, read-out: Mean IC50 value (nM) ± SD, N=3 unless otherwise indicated, 8392B Nontarget Cell Line, 48 hr exposure): < 10 nM
CC(=O)N1C[C@H](O)C[C@H]1C(=O)N[C@@H](CO)C(=O)N[C@@H](CO)C(=O)N[C@H](C(=O)N[C@@H](CCC(N)=O)C(=O)N[C@@H](CO)C(=O)N[C@@H](CO)C(=O)N1CCC[C@H]1C(=O)O[C@@H]1C2=C(C)C3(CC3)[C@@](C)(O)C(=O)C2=C[C@@]1(C)CO[Si](C)(C)C(C)(C)C)C1CCCCC1 [compound 215]				490 ± 120 nM			IC50 [10]: > 20000 nM
CC(=O)N1C[C@H](O)C[C@H]1C(=O)N[C@@H](CO)C(=O)N[C@@H](CO)C(=O)N[C@H](C(=O)N[C@@H](CCC(N)=O)C(=O)N[C@@H](CO)C(=O)N[C@@H](CO)C(=O)N1CCC[C@H]1C(=O)O[C@@H]1C2=C(C)C3(CC3)[C@@](C)(O)C(=O)C2=CC1(C)C)C1CCCCC1 [compound 216]							IC50 [11]: 190 ± 10 nM; IC50 [12]: 280 ± 60 nM; IC50 [10]: 190 ± 30 nM
CC1=C(CCCNC(=O)[C@H](CC(C)C)NC(=O)[C@H](CCC(N)=O)NC(=O)[C@H](CC(C)C)NC(=O)[C@H](CCCCN)NC(=O)[C@H](CO)NC(=O)[C@H](CO)NC(=O)[C@H](Cc2c[nH]cn2)NC(=O)N2CCOCC2)C2=C(C)C3(CC3)[C@@](C)(O)C(=O)C2=C1 [compound 221] ({Morpholide-CO}-HSSKLQL-X2)			> 21000 nM	2500 nM	> 21000 nM	> 21000 nM	IC50 [11]: > 21000 nM; IC50 [12]: 13000 nM; IC50 [10]: 800 ± 100 nM
CC1=C2C(=CC(C)(O)C2O)C(=NO)C(C)(O)C12CC2 (stereo not drawn) [compound 225]			> 350000 nM	55000 nM	47000 nM	33000 nM	
CCCCCCCC/C=C/CCCCCCCC(=O)OCC1=C(C)C=C2C(=O)[C@](C)(O)C3(CC3)C(C)=C21 [compound 226]			> 59000 nM	> 59000 nM	> 59000 nM	> 59000 nM	
CC(=O)OCC1(C)C(OC(C)=O)C2=C(C)C3(CC3)C(C)(O)C(=O)C23CC31 (stereo not drawn) [compound 250]			> 275000 nM	137000 nM	99000 nM	137000 nM	
CC1=C(Cn2ccc(=O)[nH]c2=O)C2=C(C)C3(CC3)[C@@](C)(O)C(=O)C2=C1 [compound 289]			> 290000 nM	530 ± 150 nM	51 ± 4 nM	> 8800 nM	
Halichondrin B	199 nM						CC50 (NCI 60 cell line panel [1]): > 1000 nM
